Like-named read-outs stand apart in the source and are kept apart here.
How the values were obtained:
Phytophthora infestans = format: in vivo; settings: for E, Expected % disease control / O, Observed % disease control / O-E: A76 potato
Oidium lycopersici = assay: Powdery mildew assay on detached tomato leaflets, % disease control, observed vs expected (Colby); format: in vivo
[1] = 0.03 ppm, Jan. 25, 2001, FB 2001/3001
[2] = 0.03 ppm, Jan. 26, 2001, FB 2001/3001
[3] = 0.03 ppm, Jan. 27, 2001, FB 2001/3001
[4] = 0.03 ppm, Jan. 28, 2001, FB 2001/3001
[5] = 0.03 ppm, Jan. 29, 2001, FB 2001/3001
[6] = 0.1 ppm, Jan. 25, 2001, FB 2001/3001
[7] = 0.1 ppm, Jan. 26, 2001, FB 2001/3001
[8] = 0.1 ppm, Jan. 27, 2001, FB 2001/3001
[9] = 0.1 ppm, Jan. 28, 2001, FB 2001/3001
[10] = 0.1 ppm, Jan. 29, 2001, FB 2001/3001
[11] = 0.3 ppm, Jan. 25, 2001, FB 2001/3001
[12] = 0.3 ppm, Jan. 26, 2001, FB 2001/3001
[13] = 0.3 ppm, Jan. 27, 2001, FB 2001/3001
[14] = 0.3 ppm, Jan. 28, 2001, FB 2001/3001
[15] = 0.3 ppm, Jan. 29, 2001, FB 2001/3001
[16] = tomato 980 Le/MM/Cf9-8, 0.1 ppm, Feb. 16, 2001
[17] = tomato 980 Le/MM/Cf9-8, 0.1 ppm, Feb. 17, 2001
[18] = tomato 980 Le/MM/Cf9-8, 0.1 ppm, Feb. 18, 2001
[19] = tomato 980 Le/MM/Cf9-8, 0.1 ppm, Feb. 19, 2001
[20] = tomato 980 Le/MM/Cf9-8, 0.1 ppm, Feb. 20, 2001
[21] = tomato 980 Le/MM/Cf9-44, 0.1 ppm, Feb. 16, 2001
[22] = tomato 980 Le/MM/Cf9-44, 0.1 ppm, Feb. 17, 2001
[23] = tomato 980 Le/MM/Cf9-44, 0.1 ppm, Feb. 18, 2001
[24] = tomato 980 Le/MM/Cf9-44, 0.1 ppm, Feb. 19, 2001
[25] = tomato 980 Le/MM/Cf9-44, 0.1 ppm, Feb. 20, 2001
[26] = tomato 981 Le/MM/Cf9-22, 0.1 ppm, Feb. 16, 2001
[27] = tomato 981 Le/MM/Cf9-22, 0.1 ppm, Feb. 17, 2001
[28] = tomato 981 Le/MM/Cf9-22, 0.1 ppm, Feb. 18, 2001
[29] = tomato 981 Le/MM/Cf9-22, 0.1 ppm, Feb. 19, 2001
[30] = tomato 981 Le/MM/Cf9-22, 0.1 ppm, Feb. 20, 2001

SMILES: CO/C=C(/C(=O)OC)c1ccccc1Oc1cc(Oc2ccccc2C#N)ncn1 [Azoxystrobin, azoxystrobin]
- E, Expected % disease control (Phytophthora infestans; [1]): 85.1%
- O, Observed % disease control (Phytophthora infestans; [1]): 86.1%
- O-E (Phytophthora infestans; [1]): 1.0
- E, Expected % disease control (Phytophthora infestans; [2]): 91.0%
- O, Observed % disease control (Phytophthora infestans; [2]): 91.0%
- O-E (Phytophthora infestans; [2]): 0.0
- E, Expected % disease control (Phytophthora infestans; [3]): 84.2%
- O, Observed % disease control (Phytophthora infestans; [3]): 89.6%
- O-E (Phytophthora infestans; [3]): 5.4
- E, Expected % disease control (Phytophthora infestans; [4]): 56.4%
- O, Observed % disease control (Phytophthora infestans; [4]): 84.9%
- O-E (Phytophthora infestans; [4]): 28.4
- E, Expected % disease control (Phytophthora infestans; [5]): 38.7%
- O, Observed % disease control (Phytophthora infestans; [5]): 63.8%
- O-E (Phytophthora infestans; [5]): 25.1
- E, Expected % disease control (Phytophthora infestans; [6]): 91.8%
- O, Observed % disease control (Phytophthora infestans; [6]): 91.7%
- O-E (Phytophthora infestans; [6]): −0.1
- E, Expected % disease control (Phytophthora infestans; [7]): 95.1%
- O, Observed % disease control (Phytophthora infestans; [7]): 98.6%
- O-E (Phytophthora infestans; [7]): −1.6
- E, Expected % disease control (Phytophthora infestans; [8]): 93.1%
- O, Observed % disease control (Phytophthora infestans; [8]): 91.7%
- O-E (Phytophthora infestans; [8]): −1.4
- E, Expected % disease control (Phytophthora infestans; [9]): 76.1%
- O, Observed % disease control (Phytophthora infestans; [9]): 89.9%
- O-E (Phytophthora infestans; [9]): 13.9
- E, Expected % disease control (Phytophthora infestans; [10]): 51.1%
- O, Observed % disease control (Phytophthora infestans; [10]): 86.9%
- O-E (Phytophthora infestans; [10]): 35.8
- E, Expected % disease control (Phytophthora infestans; [11]): 95.5%
- O, Observed % disease control (Phytophthora infestans; [11]): 97.2%
- O-E (Phytophthora infestans; [11]): 1.7
- E, Expected % disease control (Phytophthora infestans; [12]): 97.2%
- O, Observed % disease control (Phytophthora infestans; [12]): 98.7%
- O-E (Phytophthora infestans; [12]): 1.5
- E, Expected % disease control (Phytophthora infestans; [13]): 95.6%
- O, Observed % disease control (Phytophthora infestans; [13]): 97.9%
- O-E (Phytophthora infestans; [13]): 2.4
- E, Expected % disease control (Phytophthora infestans; [14]): 87.1%
- O, Observed % disease control (Phytophthora infestans; [14]): 98.0%
- O-E (Phytophthora infestans; [14]): 10.9
- E, Expected % disease control (Phytophthora infestans; [15]): 74.6%
- O, Observed % disease control (Phytophthora infestans; [15]): 97.0%
- O-E (Phytophthora infestans; [15]): 22.4
- performance in combination with A76 (indicative of synergy) (Phytophthora infestans; in combination with A76 potato, observed vs expected disease control): better than expected
- performance in combination with the transgenic line (indicative of synergy) (Oidium lycopersici; all three transgenic tomato lines, observed vs expected disease control): better than expected
- E, expected disease control (Oidium lycopersici; [16]): 97.5%
- O, observed disease control (Oidium lycopersici; [16]): 93.01%
- O-E (Oidium lycopersici; [16]): −4.49
- E, expected disease control (Oidium lycopersici; [17]): 92.53%
- O, observed disease control (Oidium lycopersici; [17]): 89.64%
- O-E (Oidium lycopersici; [17]): −2.89
- E, expected disease control (Oidium lycopersici; [18]): 79.68%
- O, observed disease control (Oidium lycopersici; [18]): 86.84%
- O-E (Oidium lycopersici; [18]): 7.16
- E, expected disease control (Oidium lycopersici; [19]): 74.81%
- O, observed disease control (Oidium lycopersici; [19]): 87.5%
- O-E (Oidium lycopersici; [19]): 12.69
- E, expected disease control (Oidium lycopersici; [20]): 67.47%
- O, observed disease control (Oidium lycopersici; [20]): 81.11%
- O-E (Oidium lycopersici; [20]): 13.64
- E, expected disease control (Oidium lycopersici; [21]): 93.9%
- O, observed disease control (Oidium lycopersici; [21]): 100%
- O-E (Oidium lycopersici; [21]): 6.1
- E, expected disease control (Oidium lycopersici; [22]): 84.21%
- O, observed disease control (Oidium lycopersici; [22]): 97.12%
- O-E (Oidium lycopersici; [22]): 12.91
- E, expected disease control (Oidium lycopersici; [23]): 67.22%
- O, observed disease control (Oidium lycopersici; [23]): 89.72%
- O-E (Oidium lycopersici; [23]): 22.5
- E, expected disease control (Oidium lycopersici; [24]): 61.62%
- O, observed disease control (Oidium lycopersici; [24]): 86.36%
- O-E (Oidium lycopersici; [24]): 24.74
- E, expected disease control (Oidium lycopersici; [25]): 52.54%
- O, observed disease control (Oidium lycopersici; [25]): 79.57%
- O-E (Oidium lycopersici; [25]): 27.03
- E, expected disease control (Oidium lycopersici; [26]): 93.41%
- O, observed disease control (Oidium lycopersici; [26]): 96.01%
- O-E (Oidium lycopersici; [26]): 2.6
- E, expected disease control (Oidium lycopersici; [27]): 81.74%
- O, observed disease control (Oidium lycopersici; [27]): 96.55%
- O-E (Oidium lycopersici; [27]): 14.81
- E, expected disease control (Oidium lycopersici; [28]): 69.49%
- O, observed disease control (Oidium lycopersici; [28]): 89.47%
- O-E (Oidium lycopersici; [28]): 19.98
- E, expected disease control (Oidium lycopersici; [29]): 63.9%
- O, observed disease control (Oidium lycopersici; [29]): 90.91%
- O-E (Oidium lycopersici; [29]): 27.01
- E, expected disease control (Oidium lycopersici; [30]): 56.11%
- O, observed disease control (Oidium lycopersici; [30]): 87.84%
- O-E (Oidium lycopersici; [30]): 31.73
